Our source for the IC50 values is BindingDB's records for doi:10.1016/0960-894X(95)00135-G (1995).

This test can be described thus: In vitro inhibitory activity against human neutrophil leukotriene B4 (LTB4) induced Chemotaxis.

One may read the IC50 as the concentration that gives 50% inhibition. Higher therefore signals weaker potency. Take `CC(Oc1ccc2c(c1)OC[C@@H](Cc1ccccn1)[C@@H]2O)c1ccc2ccccc2n1` (stereo partly drawn) [(3R,4S)-3-Pyridin-2-ylmethyl-7-(1-quinolin-2-yl-ethoxy)-chroman-4-ol]: the IC50 came to 0.22 µM. Molecule `C[C@@H](Oc1ccc2c(c1)OC[C@@H](Cc1cccnc1)[C@@H]2O)c1ccc2ccccc2n1` [(3R,4S)-3-Pyridin-3-ylmethyl-7-((R)-1-quinolin-2-yl-ethoxy)-chroman-4-ol] gave an IC50 of 3.4 µM.

The molecule `C[C@H](Oc1ccc2c(c1)OC[C@@H](Cc1cccnc1)[C@@H]2O)c1ccc2ccccc2n1` [(3R,4S)-3-Pyridin-3-ylmethyl-7-((S)-1-quinolin-2-yl-ethoxy)-chroman-4-ol] came in with an IC50 of 6.1 µM. For the molecule `CC(Oc1ccc2c(c1)OC[C@H](Cc1ccccn1)[C@@H]2O)c1ccc2ccccc2n1` (stereo partly drawn) [(3S,4S)-3-Pyridin-2-ylmethyl-7-(1-quinolin-2-yl-ethoxy)-chroman-4-ol], the IC50 is 14 µM. Compared with the last molecule, the IC50 is about 2.3-fold higher. As for `CC(Oc1ccc2c(c1)OC[C@H](Cc1cccnc1)[C@@H]2O)c1ccc2ccccc2n1` (stereo partly drawn) [(3S,4S)-3-Pyridin-3-ylmethyl-7-(1-quinolin-2-yl-ethoxy)-chroman-4-ol], the IC50 is 38 µM.
